Patent publication EP2218441A1, “Methods for the prevention and/or treatment of age spots” (Rahn Ag, priority 2009, dated 2010)

System: human keratinocytes (NHKs)
Assay: Lipofuscin autofluorescence in human keratinocytes under H2O2 oxidative stress, normalized to total protein
Assay type: cell-based
Conditions: Keratinocyte, 48 h, 0.5 µg/ml oleuropein for 24 h before and 2 days after the stress, 1 mM H2O2 for 20 minutes, measured 2 days after oxidative stress, read-out: decrease of lipofuscin formation, as compared to untreated H2O2- exposed cells
Method: Because there is no specific lipofuscin antibody and its composition varies between different cell types, lipofuscin autofluorescence is the most widely used method for its detection and quantification. In order to evaluate the effect of oleuropein on lipofuscin formation in oxidatively stressed cells, lipofuscin accumulation was measured by autofluorescence, after induction of oxidative stress to human keratinocytes, treated or not with oleuropein.
After 24h incubation with oleuropein, the cells were treated with 1mM H2O2 for 20 minutes. After a recovery time of 2, 4 or 7 days, representative pictures of cells were taken and lipofuscin amount was quantified by autofluorescence measurement. […]
After 2, 4 and 7 days, respectively, representative pictures of the cells were taken, and lipofuscin autofluorescence was measured.
The total protein content was determined at each time-point for data normalization purposes. […]
The autofluorescence of lipofuscin was detected at wavenlengths of 570-605nm after an excitation at 366nm, using a fluorometer (Vistor2TM, PerkinElmer, Belgium).
For each condition tested, the quantity of autofluorescent lipofuscin was normalized to the amount of total proteins. […] The dosage of proteins was performed following the Bradford method, based on the detection of the absorbance of Coomassie Blue (Coomassie Protein Assay Kit, Pierce, USA). […]

C/C=C1/[C@H](O[C@@H]2O[C@H](CO)[C@@H](O)[C@H](O)[C@H]2O)OC=C(C(=O)OC)[C@H]1CC(=O)OCCc1ccc(O)c(O)c1 [oleuropein, Oleuropein]
inhibition at 0.5 µg/mL: 13%
